Reference: US20250145573A1, “COMPOSITION FOR PREVENTING, ALLEVIATING OR TREATING CANCER” (CKP Therapeutics, Inc., priority 2023, published 2025)

Experiments:
[1] = test system: YUMC-S-P1, YUMC-P1-main, YUMC-P2-main cells; test: Cell viability assay (MTT), anti-cancer drug-sensitive and main mass PTC cells; format: cell-based, human
Experimental: (§1) Cell viability was measured using the MTT (3-(4,5-Dimethylthiazol-2-yl)-2,5-Diphenyltetrazolium Bromide) assay, cells were seeded in 96-well plates at 7×10^3 cells per well and incubated overnight to achieve 80% confluency. The detailed protocol can be found in our previous article. Data were expressed as a percentage of the signal observed in vehicle-treated cells and are shown as the means±SEM of triplicate experiments.
(§2) To evaluate to the anti-cancer efficacy of CKP1 and 2, combinatorial strategies with sorafenib or lenvatinib, we carried out cell viability assays for anti-cancer drug-sensitive (YUMC-S-P1) and main mass or lymph node metastasis PTC (YUMC-P1-main or YUMC-P2-main or YUMC-P1-meta or YUMC-P2-meta) cells treated with sorafenib or levatinib each agent treated alone or with CKP1 and CKP2.

[2] = test system: metastatic PTC (YUMC-P1-meta or YUMC-P2-meta) cells; test: Cell viability assay (MTT), metastatic PTC cells; format: cell-based, human
Experimental: as §1, §2

[3] = test system: YUMC-S-P1 cells xenograft; test: Human PTC cell xenograft, anti cancer drug-sensitive PTC cells; format: in vivo, mice
Experimental: (§3) All experiments were approved by the Animal Experiment Committee of Yonsei University. YUMC-S-P1, YUMC-P1 and -P2-main or meta patient-derived PTC cells (4.4×10^6 cells/mouse) were cultured in vitro and then injected subcutaneously into the upper left flank region of female NOD/Shi-scid, IL-2Rγ KOJic (NOG) mice. After 15 days, tumor-bearing mice were grouped randomly (n=10 per group) and treated SERCA inhibitors, thapsigargin (25 mg/kg), candidate 33 (12 mg/kg) and 36 (12 mg/kg, p.o.) with 80 mg/kg sorafenib (p.o.) either alone or combination. Tumor size was measured every three day using calipers. Tumor volume was estimated using the following formula: L×S2/2 (L, longest diameter; S, shortest diameter). Animals were maintained under specific pathogen-free conditions. All experiments were approved by the Animal Experiment Committee of Yonsei University.
(§4) We developed mouse xenograft models using anti cancer drug-sensitive (YUMC-S-P1) and metastatic PTC (YUMC-P1 and -P2-meta) cells and evaluated the anticancer effect of monotherapy with sorafenib, lenvatinib or with SERCA inhibitors (thapsigargin, CKP1 and 2) as well as that of the combination therapy between sorafenib or lenvatinib and a SERCA inhibitor. […] No significant changes in resected tumor weight were found between any of the treatment groups (FIG. 5a to 5e).

[4] = test system: metastatic PTC cells (YUMC-P1 or -P2-meta) xenograft; test: Human PTC cell xenograft, metastatic PTC cells; format: in vivo, mice; details: for tumor shrinkage: YUMC-P1 or -P2-meta xenograft; for tumor shrinkage (summary statement): xenograft tumor model developed using patient-derived antineoplastic-resistant cells
Experimental: as §3, §4

[5] = SERCA inhibitor alone treatment, whole PTC cells
[6] = in combination with sorafenib or lenvatinib, dose-dependent, YUMC-S-P1, YUMC-P1-main, YUMC-P2-main
[7] = combinatorial with sorafenib or lenvatinib treatment, dose-dependent, YUMC-P1-meta or YUMC-P2-meta
[8] = SERCA inhibitor with sorafenib or lenvatinib
[9] = combination of sorafenib or lenvatinib with SERCA inhibitor
[10] = sorafenib or lenvatinib without CKP1 and CKP2, dose-dependent, YUMC-S-P1, YUMC-P1-main, YUMC-P2-main
[11] = sorafenib or lenvatinib treatment alone, YUMC-P1-meta or YUMC-P2-meta
[12] = sorafenib or lenvatinib without SERCA inhibitors

Cc1cc(C=Nc2ccc(Cl)cc2)c2cccc(C)c2n1 [CKP1]
cell viability [1, 5]: did not critical influence | cell viability [1, 6]: significantly decreased | cell viability [2, 5]: did not critical influence | cell viability [2, 7]: remarkably restrained the viability | tumor size [3, 8]: decreased significantly tumor size | tumor shrinkage [4, 9]: substantial tumor shrinkage | tumor shrinkage (summary statement) [4]: significant tumor shrinkage

C/C=C(/C)C(=O)O[C@H]1C(C)=C2[C@H]([C@@H]1OC(=O)CCCCCCC)[C@@](C)(OC(C)=O)C[C@H](OC(=O)CCC)[C@@]1(O)[C@H]2OC(=O)[C@@]1(C)O [thapsigargin, reference compound]
cell viability [1, 5]: did not critical influence | cell viability [2, 5]: did not critical influence | cell viability [2, 7]: remarkably restrained the viability | tumor size [3, 8]: decreased significantly tumor size | tumor shrinkage [4, 9]: substantial tumor shrinkage

Cc1cc(N=Cc2ccc(Cl)cc2)c2cccc(C)c2n1 [CKP2]
cell viability [1, 5]: did not critical influence | cell viability [1, 6]: significantly decreased | cell viability [2, 5]: did not critical influence | cell viability [2, 7]: remarkably restrained the viability | tumor size [3, 8]: decreased significantly tumor size | tumor shrinkage [4, 9]: substantial tumor shrinkage | tumor shrinkage (summary statement) [4]: significant tumor shrinkage

COc1cc2nccc(Oc3ccc(NC(=O)NC4CC4)c(Cl)c3)c2cc1C(N)=O [lenvatinib, reference compound]
cell viability [1, 10]: significantly decreased | cell viability [2, 11]: no remarkably influenced | tumor size [3, 12]: decreased significantly tumor size | tumor shrinkage ([4]; monotherapy): did not induce significant tumor shrinkage

CNC(=O)c1cc(Oc2ccc(NC(=O)Nc3ccc(Cl)c(C(F)(F)F)c3)cc2)ccn1 [sorafenib, reference compound]
cell viability [1, 10]: significantly decreased | cell viability [2, 11]: no remarkably influenced | tumor size [3, 12]: decreased significantly tumor size | tumor shrinkage ([4]; monotherapy): did not induce significant tumor shrinkage
